Measurements: article PMC10791668, “Development of chia gum/alginate-polymer support for horseradish peroxidase immobilization and its application in phenolic removal” (Scientific Reports, 2024)

Test system: T1, Horseradish peroxidase (HRP); soluble-HRP
T1 construct: gene PRXC1A; class III plant peroxidase
Assay: peroxidase assay, absorbance at […] nm, Lineweaver-Burk plot
Format: biochemical, Armoracia rusticana
Conditions: free soluble enzyme; co-substrate H2O2 (8 mM in the standard assay); 20 mM sodium acetate pH 5.5; temperature not stated

Km: 35.7 mM
Structure (SMILES): COc1ccccc1O [guaiacol]
